Test results: US20250161283A1, “USE OF INDAZOLE COMPOUND FOR TREATING PSORIASIS” (WUHAN CREATERNA SCIENCE AND TECHNOLOGY CO., LTD., priority 2022, published 2025)

System: BALB/c mice
Test: IMQ (imiquimod) cream-induced psoriasis mouse model
Format: in vivo
Conditions: male BALB/c mice, 15 mg/kg intragastric, twice daily
Description: BALB/c mice, male, 8 weeks old, SPF grade, provided by Shanghai Lingchang Biotechnology Co., Ltd.
In the drawings: • Group 1 Vaseline-Topical Vehicle P.O indicates a normal control group (vehicle group). • Group 2 IMQ+Vehicle P.O indicates a model control group (vehicle group). • Group 3 IMQ+Dex-Topical indicates a positive control group (dexamethasone). • Group 4 IMQ+A 15 mg/kg P.O indicates a compound group (A, 15 mg/kg, intragastric administration). • Group 5 IMQ+B 15 mg/kg P.O indicates a compound group (B, 15 mg/kg, intragastric administration).
First, 50 mice were randomly divided into 5 groups based on body weight: compound group 1—normal control group (vehicle group); compound group 2—model control group (vehicle group); compound group 3—positive control group (dexamethasone); compound group 4 (compound A, 15 mg/kg, intragastrically administered); compound group 5 (compound B, 15 mg/kg, intragastrically administered). On day 0 of the experiment, the dorsal hair of mice in each group was shaved, removing approximately 2 cm*3 cm area of hair. From day 1 to day 7 of the experiment, except for the normal control group, each mouse received an application of 62.5 mg of 5% IMQ cream on the shaved dorsal area and 20.0 mg of 5% IMQ cream on both sides of the right ear. The normal control group received an application of Vaseline. From day 1 to day 8 of the experiment, two hours before IMQ cream stimulation, the above groups were treated with corresponding drugs. The mice were weighed and shaved prior to administration, which was recorded as day 0. The mice were administered drugs from day 1 to day 8, twice daily.
• 1.5.1. Body weight and rate of change: The body weight was recorded, and the rate of change in body weight was calculated. The results are shown in FIG. 1 (presented as Mean±SEM, where *P<0.05, **P<0.01, ***P<0.001, V.S. model control group, Two-way ANOVA, Bonferroni posttests, n=10). • 1.5.2. Right ear thickness measurement: The thickness of the right ear of animals in each group was measured and recorded using a micrometer. The results are shown in FIG. 2 (Note: data presented as Mean±SEM, where *P<0.05, **P<0.01, ***P<0.001, V.S. model control group, Two-way ANOVA, Bonferroni posttests, n=10; data presented as Mean±SEM, where #P<0.5, ##P<0.01, ###P<0.001, V.S. Group 4, Two-way ANOVA, Bonferroni posttests, n=10) • 1.5.3. Dorsal skin scoring: On days 1, 3, 5, and 7, a representative photograph was taken for each group, and clinical scoring of the dorsal skin was performed. The clinical scoring criteria are shown in Table 1, and the results are shown in FIG. 3 (data presented as Mean±SEM, where *P<0.05, **P<0.01, ***P<0.001, V.S. model control group, Two-way ANOVA, Bonferroni posttests, n=10; data presented as Mean±SEM, where #P<0.5, ##P<0.01, ###P<0.001, V.S. Group 4, Two-way ANOVA, Bonferroni posttests, n=10).
• 1.5.4. Spleen weight: On day 8, mice in each group were euthanized by CO2 inhalation, and the spleens were rapidly excised. Right ear and dorsal skin samples were also collected. One-third of the dorsal skin, spleen, and right ear tissues were fixed in 10% neutral formalin fixative for preparation of paraffin sections and HE staining. Another one-third of the dorsal skin was snap-frozen in liquid nitrogen for ELISA analysis. The remaining one-third of the dorsal skin was snap-frozen in liquid nitrogen and stored in a −80° C. freezer for future use. The results are shown in FIG. 4 (Note: data presented as Mean±SEM, where *P<0.05, **P<0.01, ***P<0.001, V.S. model control group, One-way ANOVA, Bonferroni posttests, n=10; data presented as Mean±SEM, where #P<0.5, ##P<0.01, ###P<0.001, V.S. Group 4, One-way ANOVA, Bonferroni posttests, n=10). • 1.5.5. Dorsal skin pathology scoring: Dorsal skin tissue samples were collected from mice and fixed in 10% neutral formalin fixative for 48 hours. The tissues were then degreased in 75% ethanol for 72 hours, with daily medium changes. […]

SMILES: COc1cc2nn([C@H]3CC[C@](C)(O)CC3)cc2cc1NC(=O)c1cccc(C)[n+]1[O-] [Compound B, 2-((2-(trans-4-hydroxy-cis-4-methylcyclohexyl)-6-methoxy-2H-indazol-5-yl)carbamoyl)-6-methylpyridine 1-oxide]
- disease symptoms in the keratin, epidermis, and dermis of the dorsal skin (HE staining of dorsal skin, compared to model control group): alleviation
- dorsal skin pathological scores (HE staining of dorsal skin, compared to model control group, FIG. 5): significant reduction
- psoriasis symptoms (compared to model control group): significant reduction
- weight loss (body weight and rate of change) (day 1 to day 8, compared to model control group, FIG. 1): significantly inhibited
- increase in right ear thickness (day 1 to day 8, compared to model control group, FIG. 2): significantly inhibited
- PASI clinical scores (dorsal skin: erythema, crusting, skin thickness, score 0-4) (scored on days 1, 3, 5, 7, compared to model control group, FIG. 3): significant reduction
- increase in spleen weight (spleen enlargement) (spleen excised on day 8, compared to model control group, FIG. 4): significantly inhibited
